1 compound from US8759318B2, “Phosphoramidate derivatives of guanosine nucleoside compounds for treatment of viral infections” (Inhibitex, Inc., priority 2009, dated 2014) can be followed below.

The test system of series [1] is Dengue Virus Type 2 strain New Guinea. Kind of series: Cytoprotection assay, Dengue virus. In kind it is cell-based. To be noted: Vero C1008.
In series [2] the test system is Yellow Fever Virus strain 17D. Nature of the series: microbe, parasite or virus in culture. The series is classed as cell-based. To be noted: HeLa.
In the next series the test system is Rhinovirus strain 1B. Nature of the series: Cytoprotection assay, Rhinovirus. The series is classed as cell-based. As to conditions: Enterovirus, MRC5.
The test system of series [3] is Influenza A strain Hong Kong. Kind of series: Cytoprotection assay, Influenza A. To be noted: Influenza A virus, MDCK. In kind it is cell-based.
The test system of series [4] is Vaccinia Strain Western Reserve. Nature of the series: microbe, parasite or virus in culture. In kind it is cell-based. To be noted: Orthopoxvirus vaccinia, Vero C1008.
In another series the test system is Adenovirus Type 1. Nature of the series: Cytoprotection assay, Adenovirus. To be noted: Adenovirus Type I, HeLa. The series is classed as cell-based.
Series [5] is described as follows: Cytotoxicity evaluation of the HCMV plaque reduction assay. The series is classed as cell-based. As to conditions: human, MRC-5 cells; MRC-5, HCMV AD169 assay. How it is done:
MRC-5 cells ((ATCC CCL-171) embryonal lung fibroblast, diploid, human) were used in plaque reduction assays with HCMV Strain AD169 (ATCC VR-538) and in cytoprotection assays with Rhinovirus strain 1B. They were grown in EMEM supplemented with 10% FBS, 0.1 mM non-essential amino acids, 1.0 mM sodium pyruvate, 2.0 mM L-Glutamine, 100 units/ml Penicillin and 100 μg/ml Streptomycin.
HCMV Plaque Reduction Assay: MRC-5 cells were seeded at 75,000 cells/well in 24 well plates. The plates were incubated overnight at 37° C. and 5% CO2. The following day, media was aspirated and approximately 100 plaque forming units (pfu) of HCMV AD169 was added to 21 wells of each plate in a volume of 200 μL of assay medium (MRC-5 growth medium containing 2% FBS rather than 10% FBS). The remaining three wells of each plate served as cellular control wells and received 200 μL of assay medium without virus. […] After a six day incubation period, cell viability was determined using CellTiter 96 Aqueous One Solution (Promega Corporation). […] Adhesive plate sealers were used in place of the lids, the sealed plates were inverted several times to mix the soluble formazan product and the plate was read spectrophotometrically at 490 and 650 nm with a Molecular Devices Vmax plate reader. […] A therapeutic (selectivity) index (TI) for each active compound was determined by dividing the TC50 by the IC50.

The nature of series [6]: Protide stability in normal plasma, human. The series is classed as in vitro ADME. To be noted: 37° C. How it is done:
(§1) Selected nucleoside 5′-phosphoramidates were examined for stability in human, cynomolgous monkey, rat and mouse plasma at 37° C. at both 30 min and 90 min time points.
(§2) Protide Stability in Normal Plasma: Plasma samples were prepared for analysis as follows. 50 μl of each test sample were distributed a 96-well V-bottom plate. 200 μl of acetonitrile containing 10 ng/ml of an internal standard was added to each plasma sample. The precipitated samples were centrifuged at 2500 rpm, 4° C. for 20 minutes in a Sorvall RT6000S centrifuge (Thermo Scientific, Waltham Mass.) and 100 μl of supernatant from each sample was transferred into a 96 deep well plate followed by the addition of 100 μl H2O to each sample. Samples were covered, mixed well by vortexing and maintained at 2-8° C. before and during analysis. 15 μl of each test sample was analyzed for protide concentrations by liquid chromatography coupled to tandem mass spectrometry (LC-MS/MS). Liquid chromatography was performed with an Agilent 1100 Series HPLC system equipped with a Synergi 4 μm Polar-RP, 30×2.0 mm column (Phenomenex, Torrance, Calif.). The HPLC system was coupled to an API 4000 triple quadrupole mass spectrometer (Applied Biosystems, Framingham, Mass.). Mass spectrometry was performed in positive ion mode and data was analyzed using Analyst® v1.4.2 software (Applied Biosystems, Framingham, Mass.). Data was presented as the percentage of compound recovered as compared to the 0 time point control.

A short description of series [7]: Protide stability in normal plasma, mouse. In kind it is in vitro ADME. As to conditions: 37° C. The procedure:
as §1, §2

The subject of another series is HeLa cells. As to conditions: human.
A short description of another series: in vitro. To be noted: African green monkey.
Series [8] has as its system HCV replicon (Genotype 1b). Nature of the series: Luciferase genotype 1b replicon potency assay. As to conditions: Hepatitis C virus, GETYPE1B, read-out: IC50 μM, HCV genotype 1b luciferase replicon, Renilla luciferase reporter.
Series [9] is described as follows: Compound cytotoxicity in cytoprotection assay (MTS), MDBK. To be noted: cow, MDBK cells.

Some results are limits rather than exact numbers.

For the compound `COc1nc(N)nc2c1ncn2C1O[C@H](COP(=O)(N[C@@H](C)C(=O)OCC(C)(C)C)Oc2cccc3ccccc23)[C@@H](O)[C@@]1(C)O` (stereo partly drawn) [Example 20], the concentration giving a half-maximal response (EC50) in series [1] was 1.81 µM; in series [2] it was 0.418 µM; in the series with Rhinovirus strain 1B it was > 10 µM; in [3], > 10 µM; in series [4], 4.52 µM; in the series on Adenovirus Type 1, > 10 µM. Moreover, the CC50 at 6 days in [5] is 1.57 µM. Further, the “% Compound Remaining Compared to %100 Acetonitrile Control” value was 94.0% in [6] (30 min), 101.5% in series [6] (1.5 h), 0% in series [7] (30 min) and 0% in series [7] (1.5 h). Moreover, the CC50 with HeLa cells and in “in vitro” was > 10 µM in each case. Also, in [8], the IC50 was 0.001 µM. The CC50 at 7 days in series [9] was > 10 µM.

As a reminder, the EC50 is the midpoint of the concentration-response curve. Broadly, the IC50 is the midpoint of a concentration-inhibition curve.
